Measurements: the CheMixHub viscosity set
± gives the uncertainty stated by the source.

Assay: xn = mol fraction of the nth substance listed

CCOC=O + CC(C)O
viscosity [mPa·s], 100 kPa
Settings	x1 = 0.0814	x1 = 0.1589	x1 = 0.2351	x1 = 0.3413	x1 = 0.4351	x1 = 0.5587	x1 = 0.6507	x1 = 0.7349	x1 = 0.8498	x1 = 0.9394
293.15 K	1.77 ± 0.04	1.33 ± 0.03	1.06 ± 0.02	0.82 ± 0.02	0.68 ± 0.02	0.57 ± 0.01	0.52 ± 0.01	0.48 ± 0.01	0.44 ± 0.01	0.42 ± 0.01
298.15 K	1.53 ± 0.03	1.18 ± 0.03	0.95 ± 0.02	0.76 ± 0.02	0.64 ± 0.02	0.54 ± 0.01	0.49 ± 0.01	0.46 ± 0.01	0.42 ± 0.01	0.4 ± 0.01
303.15 K	1.35 ± 0.03	1.06 ± 0.02	0.87 ± 0.02	0.7 ± 0.02	0.59 ± 0.01	0.51 ± 0.01	0.46 ± 0.01	0.43 ± 0.01	0.4 ± 0.01	0.38 ± 0.01
308.15 K	1.19 ± 0.03	0.95 ± 0.02	0.79 ± 0.02	0.65 ± 0.02	0.56 ± 0.01	0.48 ± 0.01	0.44 ± 0.01	0.41 ± 0.01	0.38 ± 0.01	0.36 ± 0.01
313.15 K	1.05 ± 0.02	0.85 ± 0.02	0.71 ± 0.02	0.59 ± 0.01	0.52 ± 0.01	0.45 ± 0.01	0.41 ± 0.01	0.39 ± 0.01	0.36 ± 0.01	0.34 ± 0.01
318.15 K	0.92 ± 0.02	0.75 ± 0.02	0.64 ± 0.02	0.54 ± 0.01	0.48 ± 0.01	0.42 ± 0.01	0.39 ± 0.01	0.36 ± 0.01	0.34 ± 0.01	0.32 ± 0.01
323.15 K	0.81 ± 0.02	0.67 ± 0.02	0.57 ± 0.01	0.49 ± 0.01	0.44 ± 0.01	0.38 ± 0.01	0.36 ± 0.01	0.33 ± 0.01	0.31 ± 0.01	0.3 ± 0.01

ClCCl + c1ccccc1
101.33 kPa
Settings	viscosity [mPa·s]
293.15 K, x1 = 0.1454	0.591 ± 0.015
293.15 K, x1 = 0.259	0.559 ± 0.015
293.15 K, x1 = 0.3662	0.531 ± 0.014
293.15 K, x1 = 0.4451	0.513 ± 0.013
293.15 K, x1 = 0.5158	0.498 ± 0.013
293.15 K, x1 = 0.5932	0.484 ± 0.013
293.15 K, x1 = 0.6593	0.471 ± 0.012
293.15 K, x1 = 0.714	0.463 ± 0.012
293.15 K, x1 = 0.764	0.456 ± 0.012
298.15 K, x1 = 0.2149	0.535 ± 0.014
298.15 K, x1 = 0.2959	0.514 ± 0.013
298.15 K, x1 = 0.3817	0.497 ± 0.013
298.15 K, x1 = 0.4921	0.477 ± 0.012
298.15 K, x1 = 0.5445	0.466 ± 0.012
298.15 K, x1 = 0.5957	0.458 ± 0.012
298.15 K, x1 = 0.6358	0.452 ± 0.012
298.15 K, x1 = 0.6923	0.445 ± 0.012
303.15 K, x1 = 0.1659	0.516 ± 0.013
303.15 K, x1 = 0.2665	0.494 ± 0.013
303.15 K, x1 = 0.3831	0.468 ± 0.012
303.15 K, x1 = 0.4907	0.446 ± 0.012
303.15 K, x1 = 0.5944	0.429 ± 0.011
303.15 K, x1 = 0.6777	0.419 ± 0.011
303.15 K, x1 = 0.7557	0.412 ± 0.011
303.15 K, x1 = 0.8164	0.406 ± 0.011

ClCCl + CCCO
Settings	viscosity [mPa·s]
298.15 K, 101 kPa, x2 = 0.05	0.48 ± 0.006
298.15 K, 101 kPa, x2 = 0.1	0.535 ± 0.007
298.15 K, 101 kPa, x2 = 0.1002	0.44 ± 0.011
298.15 K, 101 kPa, x2 = 0.15	0.588 ± 0.007
298.15 K, 101 kPa, x2 = 0.1991	0.487 ± 0.011
298.15 K, 101 kPa, x2 = 0.2	0.639 ± 0.007
298.15 K, 101 kPa, x2 = 0.2496	0.496 ± 0.011
298.15 K, 101 kPa, x2 = 0.25	0.689 ± 0.007
298.15 K, 101 kPa, x2 = 0.2978	0.528 ± 0.011
298.15 K, 101 kPa, x2 = 0.3	0.74 ± 0.008
298.15 K, 101 kPa, x2 = 0.35	0.792 ± 0.008
298.15 K, 101 kPa, x2 = 0.3938	0.6 ± 0.011
298.15 K, 101 kPa, x2 = 0.4	0.846 ± 0.008
298.15 K, 101 kPa, x2 = 0.45	0.904 ± 0.009
298.15 K, 101 kPa, x2 = 0.4603	0.668 ± 0.011
298.15 K, 101 kPa, x2 = 0.498	0.716 ± 0.011
298.15 K, 101 kPa, x2 = 0.5	0.966 ± 0.009
298.15 K, 101 kPa, x2 = 0.55	1.032 ± 0.009
298.15 K, 101 kPa, x2 = 0.589	0.843 ± 0.012
298.15 K, 101 kPa, x2 = 0.6	1.104 ± 0.01
298.15 K, 101 kPa, x2 = 0.65	1.182 ± 0.01
298.15 K, 101 kPa, x2 = 0.6943	1.043 ± 0.013
298.15 K, 101 kPa, x2 = 0.7	1.266 ± 0.011
298.15 K, 101 kPa, x2 = 0.75	1.357 ± 0.011
298.15 K, 101 kPa, x2 = 0.7977	1.289 ± 0.014
298.15 K, 101 kPa, x2 = 0.8	1.455 ± 0.012
298.15 K, 101 kPa, x2 = 0.85	1.56 ± 0.013
298.15 K, 101 kPa, x2 = 0.8955	1.57 ± 0.015
298.15 K, 101 kPa, x2 = 0.9	1.673 ± 0.013
298.15 K, 101 kPa, x2 = 0.95	1.794 ± 0.014
303.15 K, 101.3 kPa, x2 = 0.0434	0.401 ± 0.011
303.15 K, 101.3 kPa, x2 = 0.0863	0.4085 ± 0.011
303.15 K, 101.3 kPa, x2 = 0.1371	0.423 ± 0.011
303.15 K, 101.3 kPa, x2 = 0.1943	0.445 ± 0.012
303.15 K, 101.3 kPa, x2 = 0.2863	0.4936 ± 0.013
303.15 K, 101.3 kPa, x2 = 0.3859	0.5655 ± 0.015
303.15 K, 101.3 kPa, x2 = 0.4983	0.6748 ± 0.018
303.15 K, 101.3 kPa, x2 = 0.5806	0.7794 ± 0.021
303.15 K, 101.3 kPa, x2 = 0.7402	1.059 ± 0.028
303.15 K, 101.3 kPa, x2 = 0.828	1.257 ± 0.033
303.15 K, 101.3 kPa, x2 = 0.9016	1.447 ± 0.038
303.15 K, 101.3 kPa, x2 = 0.9307	1.606 ± 0.042
303.15 K, 101.3 kPa, x2 = 0.9459	1.57 ± 0.041
303.15 K, 101.3 kPa, x2 = 0.95	1.643 ± 0.043

COCC(C)OCC(C)OC (stereo not given) + CCCCCO
Settings	viscosity [mPa·s]
298.15 K, 101 kPa, x1 = 0.4941	1.345 ± 0.013

C1CCC2=[NH+]CCCN2CC1.c1c[n-]cn1 + CCO
298.15 K, 100 kPa
Settings	viscosity [mPa·s]
x1 = 0.0998	1.95 ± 0.081
x1 = 0.1996	3.268 ± 0.14
x1 = 0.2995	5.15 ± 0.21
x1 = 0.3994	7.752 ± 0.32
x1 = 0.4994	10.78 ± 0.45
x1 = 0.5994	14.23 ± 0.6
x1 = 0.6995	19.14 ± 0.81
x1 = 0.7996	23.96 ± 1
x1 = 0.8998	28.78 ± 1.2

COCC(C)OCC(C)OC (stereo not given) + CCCCCCCO
Settings	viscosity [mPa·s]
298.15 K, 101 kPa, x1 = 0.4532	1.895 ± 0.015

CC(=O)O + ClC(Cl)Cl
Settings	viscosity [mPa·s]
298.15 K, 101.33 kPa, x2 = 0.0468	1.087 ± 0.01
298.15 K, 101.33 kPa, x2 = 0.1013	0.997 ± 0.009
298.15 K, 101.33 kPa, x2 = 0.1021	1.022 ± 0.01
298.15 K, 101.33 kPa, x2 = 0.1487	0.954 ± 0.009
298.15 K, 101.33 kPa, x2 = 0.203	0.925 ± 0.009
298.15 K, 101.33 kPa, x2 = 0.2312	0.882 ± 0.008
298.15 K, 101.33 kPa, x2 = 0.2997	0.837 ± 0.008
298.15 K, 101.33 kPa, x2 = 0.3403	0.805 ± 0.008
298.15 K, 101.33 kPa, x2 = 0.4207	0.759 ± 0.007
298.15 K, 101.33 kPa, x2 = 0.4784	0.731 ± 0.007
298.15 K, 101.33 kPa, x2 = 0.5017	0.717 ± 0.007
298.15 K, 101.33 kPa, x2 = 0.5627	0.68 ± 0.007
298.15 K, 101.33 kPa, x2 = 0.6215	0.657 ± 0.007
298.15 K, 101.33 kPa, x2 = 0.7312	0.613 ± 0.006
298.15 K, 101.33 kPa, x2 = 0.8031	0.589 ± 0.006
298.15 K, 101.33 kPa, x2 = 0.8931	0.56 ± 0.006
303.15 K, 101 kPa, x2 = 0.0819	0.8986 ± 0.024
303.15 K, 101 kPa, x2 = 0.25	0.7244 ± 0.019
303.15 K, 101 kPa, x2 = 0.7464	0.5285 ± 0.014
313.15 K, 101 kPa, x2 = 0.0819	0.8287 ± 0.022
313.15 K, 101 kPa, x2 = 0.25	0.6532 ± 0.017
313.15 K, 101 kPa, x2 = 0.7464	0.484 ± 0.013
323.15 K, 101 kPa, x2 = 0.0819	0.7516 ± 0.02
323.15 K, 101 kPa, x2 = 0.25	0.5982 ± 0.016
323.15 K, 101 kPa, x2 = 0.7464	0.4537 ± 0.012
